Like-named read-outs stand apart in the source and are kept apart here. Numbered stars: 1 amine (or outer) side, 2 acyl side, 3 side chain; on linkers, the order of the positions; unused ones are H or OH. Square brackets hold non-standard residues; d marks the D form. Peptide text beside a SMILES is read from it. * marks the point of attachment. Acetyl(3-pyridyl) = O=C(Cc1cccnc1)*; Quinaldoyl = O=C(c1ccc2ccccc2n1)*; Brosyl = O=S(=O)(c1ccc(Br)cc1)*; Morpholide = C1CN(*)CCO1; Pyrrolidide = C1CCN(*)C1; PhAc = O=C(Cc1ccccc1)*; CO = O=C([*:1])[*:2]; NHBn = c1ccc(CN*)cc1; Bz = O=C(c1ccccc1)*; NHPh = c1ccc(N*)cc1; NHNH2 = NN*
Target: VLA-4 (Homo sapiens, UniProt P05556+P13612)
Sequence (P13612 34-1032): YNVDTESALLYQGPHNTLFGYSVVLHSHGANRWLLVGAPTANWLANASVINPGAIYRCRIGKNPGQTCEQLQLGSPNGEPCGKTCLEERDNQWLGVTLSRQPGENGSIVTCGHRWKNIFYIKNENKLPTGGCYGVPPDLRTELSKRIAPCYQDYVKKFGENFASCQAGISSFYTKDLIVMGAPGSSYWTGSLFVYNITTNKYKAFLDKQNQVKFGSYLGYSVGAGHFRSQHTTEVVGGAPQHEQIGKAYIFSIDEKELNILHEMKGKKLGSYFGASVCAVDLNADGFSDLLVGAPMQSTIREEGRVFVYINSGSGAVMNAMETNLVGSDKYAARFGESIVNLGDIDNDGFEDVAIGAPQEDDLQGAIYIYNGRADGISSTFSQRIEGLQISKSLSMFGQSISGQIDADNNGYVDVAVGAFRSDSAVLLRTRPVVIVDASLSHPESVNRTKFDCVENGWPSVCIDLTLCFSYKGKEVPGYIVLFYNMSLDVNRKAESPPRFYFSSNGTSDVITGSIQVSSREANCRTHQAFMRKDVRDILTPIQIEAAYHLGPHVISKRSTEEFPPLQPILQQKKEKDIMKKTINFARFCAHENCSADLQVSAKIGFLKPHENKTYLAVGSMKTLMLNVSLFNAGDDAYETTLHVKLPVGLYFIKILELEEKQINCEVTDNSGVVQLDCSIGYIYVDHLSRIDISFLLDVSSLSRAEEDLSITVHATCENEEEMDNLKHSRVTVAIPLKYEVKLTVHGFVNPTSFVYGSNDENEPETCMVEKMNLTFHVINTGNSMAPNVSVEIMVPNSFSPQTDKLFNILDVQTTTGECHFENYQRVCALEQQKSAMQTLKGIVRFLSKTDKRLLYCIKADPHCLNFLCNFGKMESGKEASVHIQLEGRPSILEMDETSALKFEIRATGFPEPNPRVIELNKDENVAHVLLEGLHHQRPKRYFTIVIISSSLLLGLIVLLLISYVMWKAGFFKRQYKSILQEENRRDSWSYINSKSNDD
Sequence (P05556 21-798): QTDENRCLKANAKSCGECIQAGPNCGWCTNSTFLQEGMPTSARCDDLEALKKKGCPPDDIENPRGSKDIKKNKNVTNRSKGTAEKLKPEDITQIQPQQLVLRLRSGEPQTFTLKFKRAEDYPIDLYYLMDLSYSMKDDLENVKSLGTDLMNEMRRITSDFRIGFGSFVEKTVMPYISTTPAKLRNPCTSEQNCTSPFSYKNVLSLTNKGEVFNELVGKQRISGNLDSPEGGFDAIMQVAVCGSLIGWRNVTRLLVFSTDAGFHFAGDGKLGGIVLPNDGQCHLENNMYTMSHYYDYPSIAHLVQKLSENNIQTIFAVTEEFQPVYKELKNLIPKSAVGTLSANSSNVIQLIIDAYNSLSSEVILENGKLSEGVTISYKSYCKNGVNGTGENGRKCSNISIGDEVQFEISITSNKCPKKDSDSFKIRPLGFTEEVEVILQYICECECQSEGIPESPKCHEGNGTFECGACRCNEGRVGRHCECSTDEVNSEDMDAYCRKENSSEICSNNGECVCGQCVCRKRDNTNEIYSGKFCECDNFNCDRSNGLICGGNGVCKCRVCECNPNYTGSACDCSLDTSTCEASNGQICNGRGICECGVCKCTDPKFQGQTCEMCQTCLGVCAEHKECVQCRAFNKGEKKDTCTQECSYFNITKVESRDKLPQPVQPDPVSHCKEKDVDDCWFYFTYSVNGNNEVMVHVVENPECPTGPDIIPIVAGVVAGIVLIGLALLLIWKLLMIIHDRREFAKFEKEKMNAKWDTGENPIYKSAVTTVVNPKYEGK
Experiment: cell-based
Type: cell-based
Parameters: host or cells: Jurkat (human T lymphoblastic line)
Method: Binding inhibition is measured here as a concentration of peptide that inhibits one-half the binding between a standard number of Jurkat cells and a standard amount of CS-1 peptide bound to the surface of a microtiter plate well. Those concentrations are conveniently expressed as IC50 values, smaller numbers indicating a lower concentration required to inhibit 50 percent binding and therefore greater potency. Further specifics of this assay are provided hereinafter.
Jurkat cells (ATCC TIB 152), a human T lymphoblastic line, labeled with ^51 chromium were used to assay in vitro binding inhibition provided by various peptides discussed herein.
The plates were prepared as follows: The 25-mer CS-1 peptide (SEQ ID NO:1) dissolved at 0.5-1 μg/ml in a buffer of 0.1M NaHCO3 at pH 9.5 that also contained 10 μg/ml of bovine serum albumin (BSA) or a conjugate of the CS-1 peptide linked to ovalbumin (CS-1-OVA) dissolved at 1-2.5 μg/ml in the same buffer was used as the substrate. Each well of the microtiter plates was coated with 50 μl of substrate or buffer alone for controls. The wells were permitted to dry out completely and were then rinsed twice with PBS at pH 7.4. Non-specific binding sites of each well were then blocked using 200 μl per well of RPMI/1 percent BSA for two hours at room temperature. Both solid phase-affixed substrates provided similar results.
Jurkat cells (3-5×10^6 cells) were placed into a 15 ml Falcon™ round-bottom tube with a cap. The tube was centrifuged, and the extra medium was then removed.
Two hundred microliters of a ^51 Cr labeling solution were added to the centrifuged cells and maintained in contact with the cells for 90-120 minutes in a warm room. This procedure typically provides about 50,000-100,000 cpm/well with about 80-100 percent cell viability. Longer contact times provide a greater amount of labeling but lower cell viability.
The labeled cells are washed with (i) complete medium, (ii) 1 mM EDTA/PBS and then (iii) RPM1/1 percent BSA free of serum components. The cells are centrifuged after each washing. The cells are finally resuspended in serum-free RPMI/1 percent BSA at a concentration of 1×10^6 viable cells/ml, which provides a concentration that is diluted by one-half in the assay.
Inhibitor peptides are prepared as stock solutions at 20 mg/ml in DMSO in 1.5 ml cryogenic screwcap vials, and were stored at -70° C. Using Flow™ round-bottom or V-bottom microtiter plates, the inhibitor peptides were prepared at twice the assay concentration in RPMI/1 percent BSA at 60 μl well.
Four initial dilutions were typically used.
The ^51 Cr-labeled cells (1×10^6 cells at 60 μl/well) were then admixed with the diluted peptide solutions. The admixtures were maintained at room temperature (about 22° C.) for 30 minutes.
One hundred microliters of each inhibitor peptide/cell admixture were transferred to the substrate-coated wells. This was done in triplicate for each dilution. The resulting plates were incubated for 30 minutes at 37° C. and then washed gently three times with RPMI/1 percent BSA at 200 μl/well. Binding was observed microscopically, particularly after the second wash.
The bound cells were then lysed by the addition of a 0.5 percent solution of sodium dodecylsulfate in water at 100 μ/l well. The resulting solutions were then processed for counting and calculation of IC50 values following usual procedures. Appropriate positive and negative controls were used with each plate so that the results of separate assays could be normalized and compared.
The data of Table 1 are so normalized.

[1] = normalized IC50 relative to standard peptide of SEQ ID NO:3 (=1), about one-tenth or less of the standard is assigned zero

## Cc1ccc(C(=O)N[C@@H](CC(C)C)C(=O)N[C@@H](CC(=O)O)C(=O)N[C@H](C(=O)N2CCC[C@@H]2C(N)=O)C(C)C)cc1C [X L D V p 3,4-dimethylbenzoyl amide]
  RELATIVE POTENCY (relative peptide inhibition of VLA-4 binding CS-1): 8

## CC(C)C[C@@H](C(=O)N[C@@H](CC(=O)O)C(=O)N[C@H](C(=O)N1CCC[C@@H]1C(N)=O)C(C)C)N1C(=O)c2ccccc2C1=O [X L D V p phthalimido amide]
  RELATIVE POTENCY (relative peptide inhibition of VLA-4 binding CS-1): 140

## CC(C)C[C@H](NC(=O)Cc1ccccc1)C(=O)N[C@@H](CC(=O)O)C(=O)NC(c1ccccc1)c1ccccc1 [X L D Z phenylacetyl benzylhydrylamide]
[1]
  RELATIVE POTENCY (relative peptide inhibition of VLA-4 binding CS-1): 3

## CC(C)C[C@H](NC(=O)Cc1ccccc1)C(=O)N[C@@H](CC(=O)O)C(=O)N[C@@H](Cc1ccccc1)C(=O)N1CCCC1 [X L D F Z phenylacetyl pyrrolidinamide] (PhAc-Leu-Asp-Phe-Pyrrolidide)
[1]
  RELATIVE POTENCY (relative peptide inhibition of VLA-4 binding CS-1): 250

## CC(C)C[C@H](NC(=O)Cc1ccccc1)C(=O)N[C@@H](CC(=O)O)C(=O)NNC(=O)OC(C)(C)C [X L D Z phenylacetyl N'-t-Boc-hydrazide]
[1]
  RELATIVE POTENCY (relative peptide inhibition of VLA-4 binding CS-1): 2

## CC(C)C[C@H](NC(=O)Cc1ccccc1)C(=O)N[C@@H](CC(=O)O)C(=O)NN [X L D Z phenylacetyl hydrazide] (PhAc-Leu-Asp-NHNH2)
[1]
  RELATIVE POTENCY (relative peptide inhibition of VLA-4 binding CS-1): 1

## CC(C)C[C@H](NC(=O)Cc1ccccc1)C(=O)N[C@@H](CC(=O)O)C(=O)NC1Cc2ccccc2N(CC(C)C)C1=O (stereo partly shown)
[1]
  RELATIVE POTENCY (relative peptide inhibition of VLA-4 binding CS-1): 6

## CC(C)C[C@H](NC(=O)Cc1ccccc1)C(=O)N[C@@H](CC(=O)O)C(=O)NCc1ccccc1 [X L D Z phenylacetyl benzylamide] (PhAc-Leu-Asp-NHBn)
[1]
  RELATIVE POTENCY (relative peptide inhibition of VLA-4 binding CS-1): 19

## CC(C)C[C@H](NC(=O)Cc1ccccc1)C(=O)N[C@@H](CC(=O)O)C(=O)NCC(=O)N1CCOCC1 [X L D G Z phenylacetyl morpholinamide] (PhAc-Leu-Asp-Gly-Morpholide)
[1]
  RELATIVE POTENCY (relative peptide inhibition of VLA-4 binding CS-1): 9

## CC(C)C[C@H](NC(=O)CCC1CCCCC1)C(=O)N[C@@H](CC(=O)O)C(=O)N[C@H](C(=O)N1CCC[C@@H]1C(N)=O)C(C)C [X L D V p cyclohexanepropionyl amide]
  RELATIVE POTENCY (relative peptide inhibition of VLA-4 binding CS-1): 1

## CC(C)CCC(=O)N[C@@H](CC(C)C)C(=O)N[C@@H](CC(=O)O)C(=O)N[C@H](C(=O)N1CCC[C@@H]1C(N)=O)C(C)C [X L D V p 4-methylvaleroyl amide]
  RELATIVE POTENCY (relative peptide inhibition of VLA-4 binding CS-1): 3

## CC(C)C[C@H](NC(=O)c1ccc2ccccc2n1)C(=O)N[C@@H](CC(=O)O)C(=O)N[C@@H](Cc1ccccc1)C(=O)N1CCC[C@@H]1C(N)=O [X L D F p 2-quinolinecarbonyl amide] (Quinaldoyl-LDF[dP]-NH2)
  RELATIVE POTENCY (relative peptide inhibition of VLA-4 binding CS-1): 4

## CC(C)C[C@H](NC(=O)Cc1ccccc1)C(=O)N[C@@H](CC(=O)O)C(=O)N[C@@H](Cc1ccccc1)C(N)=O [X L D F phenylacetyl amide] (PhAc-Leu-Asp-Phe-NH2)
[1]
  RELATIVE POTENCY (relative peptide inhibition of VLA-4 binding CS-1): 1

## CC(C)C[C@H](NC(=O)[C@H](N)Cc1ccccc1)C(=O)N[C@@H](CC(=O)O)C(=O)N[C@H](C(=O)N1CCC[C@@H]1C(=O)O)C(C)C [f L D V p free amine free acid] (H-[dF]LDV[dP]-OH)
  RELATIVE POTENCY (relative peptide inhibition of VLA-4 binding CS-1): 0

## CC(C)C[C@H](NC(=O)[C@H](CC(=O)O)NC(=O)Cc1ccccc1)C(=O)N[C@@H](Cc1ccccc1)C(=O)N1CCC[C@@H]1C(N)=O [X D L F p phenylacetyl amide, N-phenylacetyl-Asp-Leu-Phe-D-Pro-NH2, reference compound] (PhAc-DLF[dP]-NH2)
[1]
  RELATIVE POTENCY (relative peptide inhibition of VLA-4 binding CS-1): < 1

## CC(C)C[C@H](NS(=O)(=O)c1ccc(Br)cc1)C(=O)N[C@@H](CC(=O)O)C(=O)N[C@@H](Cc1ccccc1)C(=O)N1CCC[C@@H]1C(N)=O [X L D F p 4-bromophenylsulfonyl amide] (Brosyl-LDF[dP]-NH2)
  RELATIVE POTENCY (relative peptide inhibition of VLA-4 binding CS-1): < 1

## CC(C)C[C@H](NC(=O)C12CC3CC(CC(C3)C1)C2)C(=O)N[C@@H](CC(=O)O)C(=O)N[C@H](C(=O)N1CCC[C@@H]1C(N)=O)C(C)C [X L D V p adamantanecarbonyl amide]
  RELATIVE POTENCY (relative peptide inhibition of VLA-4 binding CS-1): 1

## CC(C)C[C@H](NC(=O)c1ccccc1)C(=O)N[C@@H](CC(=O)O)C(=O)N[C@@H](Cc1ccccc1)C(=O)N1CCC[C@@H]1C(N)=O [X L D F p benzoyl amide] (Bz-LDF[dP]-NH2)
[1]
  RELATIVE POTENCY (relative peptide inhibition of VLA-4 binding CS-1): 75

## CC(C)C[C@H](NC(=O)Cc1ccccc1)C(=O)N[C@@H](CC(=O)O)C(=O)N[C@@H](CC(C)C)C(=O)N1CCOCC1 [X L D L Z phenylacetyl morpholinamide] (PhAc-Leu-Asp-Leu-Morpholide)
[1]
  RELATIVE POTENCY (relative peptide inhibition of VLA-4 binding CS-1): 291

## Cc1cccc(C)c1C(=O)N[C@@H](CC(C)C)C(=O)N[C@@H](CC(=O)O)C(=O)N[C@H](C(=O)N1CCC[C@@H]1C(N)=O)C(C)C [X L D V p 2,6-dimethylbenzoyl amide]
  RELATIVE POTENCY (relative peptide inhibition of VLA-4 binding CS-1): 5

## CC(C)C[C@H](NC(=O)Nc1ccccc1)C(=O)N[C@@H](CC(=O)O)C(=O)N[C@@H](Cc1ccccc1)C(=O)N1CCC[C@@H]1C(N)=O [X L D F p anilinocarbonyl amide] ({NHPh-CO}-LDF[dP]-NH2)
  RELATIVE POTENCY (relative peptide inhibition of VLA-4 binding CS-1): 227

## CCC(C)CC(=O)N[C@@H](CC(C)C)C(=O)N[C@@H](CC(=O)O)C(=O)N[C@H](C(=O)N1CCC[C@@H]1C(N)=O)C(C)C (stereo partly shown) [X L D V p 3-methylvaleroyl amide]
  RELATIVE POTENCY (relative peptide inhibition of VLA-4 binding CS-1): 3

## CC(C)C[C@H](NC(=O)Cc1ccccc1)C(=O)N[C@@H](CC(=O)O)C(=O)N[C@H](C(=O)N1CCC[C@@H]1C(N)=O)C(C)C [X L D V p phenylacetyl amide, N-phenylacetyl-Leu-Asp-Val-D-Pro-NH2]
[1]
  RELATIVE POTENCY (relative peptide inhibition of VLA-4 binding CS-1): 106

## CC(C)C[C@H](NC(=O)C1CCCCC1)C(=O)N[C@@H](CC(=O)O)C(=O)N[C@H](C(=O)N1CCC[C@@H]1C(N)=O)C(C)C [X L D V p cyclohexanecarbonyl amide]
  RELATIVE POTENCY (relative peptide inhibition of VLA-4 binding CS-1): 5

## CC(C)C[C@H](NC(=O)Cc1cccnc1)C(=O)N[C@@H](CC(=O)O)C(=O)N[C@@H](Cc1ccccc1)C(=O)N1CCC[C@@H]1C(N)=O [X L D F p pyridine-3-acetyl amide] ({Acetyl(3-pyridyl)}-LDF[dP]-NH2)
  RELATIVE POTENCY (relative peptide inhibition of VLA-4 binding CS-1): 469

## CC(C)C[C@@H](C(=O)N[C@@H](CC(=O)O)C(=O)N[C@@H](Cc1ccccc1)C(=O)N1CCC[C@@H]1C(N)=O)n1c(=O)[nH]c2ccccc2c1=O
  RELATIVE POTENCY (relative peptide inhibition of VLA-4 binding CS-1): 56

## CC(C)C[C@H](NC(=O)c1cccnc1)C(=O)N[C@@H](CC(=O)O)C(=O)N[C@H](C(=O)N1CCC[C@@H]1C(N)=O)C(C)C [X L D V p pyridine-3-carbonyl amide]
  RELATIVE POTENCY (relative peptide inhibition of VLA-4 binding CS-1): 71

## CC(C)C[C@H](N)C(=O)N[C@@H](CC(=O)O)C(=O)N[C@@H](Cc1ccccc1)C(N)=O [L D F free amine amide] (H-Leu-Asp-Phe-NH2)
  RELATIVE POTENCY (relative peptide inhibition of VLA-4 binding CS-1): 0

— US5688913A, “CS-1 peptidomimetics, compositions and methods of using the same” (Cytel Corporation, priority 1995, dated 1997)
